Literature values, collected in patent US8431374B2, “Methods for the economical production of biofuel from biomass” (Gevo, Inc., priority 2007, dated 2013).
Blank lines part the entries; values can stand above or below the compound they belong to.

How the values were obtained:
[1] = logarithm of the octanol:water partition coefficient
Klyveromyces marxianus = conditions: in binary combination (Ballesteros 2004)

Compound: CCC(C)O (centres unmarked) [2-butanol]
log P [1]: 0.6

Compound: COc1cc(C=O)ccc1O [Vanillin, vanillin]
reduction in both cell growth and fermentation (Klyveromyces marxianus): 90%

Second part, the compound after the results:

solubility limit (octanol, two-phase system (Chen, Q. 1995)): < 1100 µg/mL
Compound: CCCCCCCCO [1-octanol]

Solubility in water (20° C., given in words): miscible
Compound: CC(C)O [2-propanol]

log P [1]: 0.79
Compound: CC(C)CO [isobutanol]
